The results in this text go back to US20080267948A1, “Croos-B Structure Binding Compounds” (priority 2005, published 2008).

Experiment [1] deals with T1, glycated haemoglobin (Hb-AGE) (Homo sapiens, UniProt P68871+P69905).
T1 construct: purchased Sigma-Aldrich H7379
The experiment is described as follows: ELISA binding of IgIV to immobilized Hb-AGE and inhibition studies. The settings on record: 15 μg/ml IgIV, concentration series of competitor. The method, then:
Binding of IgIV was determined using an enzyme linked immunosorbent assay (ELISA) set-up. For this purpose 50 μl/well of potential ligands at indicated concentrations or coat buffer only for control and background measurement purposes, were coated overnight at 4° C., with motion, in 50 mM NaHCO3 pH 9.6. Glycated albumin and Hb (BSA-AGE and Hb-AGE), control BSA and control Hb were coated at 5 μg/ml. The BSA and Hb controls were prepared freshly by dissolving lyophilized proteins at 1 mg/ml in PBS upon resuspending by pipetting, followed by a 30′ period at the roller bank, at room temperature. The protein solutions were centrifuged for 10′ at 16,000*g and diluted in coat buffer. Coat controls were performed with anti-glycated protein antibody, anti-albumin antibody, anti-Hb antibody. The alkaline phosphatase-conjugated anti-human Ig antibodies were controlled by coating the IgIV's and overlaying them the secondary antibodies. After coating the plates were washed twice with 50 mM Tris-HCl pH 7.3, 150 mM NaCl, 0.1% v/v Tween20, and blocked with 175 μl/well Blocking reagent (Roche Diagnostics, Almere, The Netherlands; catalogue number 11112589001), for 1 h at room temperature, with motion. Plates were washed twice and incubated in triplicate with indicated antibodies dilution series, plasma dilution series or controls, including binding buffer only, in the absence or presence of putative inhibitors, in binding buffer; PBS/0.1% v/v Tween20, at 50 μl/well, for 1 h at room temperature, with constant motion. After four wash cycles, secondary antibodies were added to the wells, 50 μl/well, for 45′ at room temperature, with motion. RAMPO and SWARPO were used at 2000 times dilution, goat anti-human IgG antibodies were diluted 3000 times, goat anti-human IgM antibodies were diluted 1000 times. After 5 washes with wash buffer followed by two washes with PBS, binding of antibodies was assessed. […] After 5′ absorbance was read at 405 nm. […] After 5′ absorbance was read at 490 nm. […] Triplicates were averaged and standard deviations calculated. […]

The target in experiment [2] is T2, tPA/plasminogen (Homo sapiens, UniProt P00750).
T2 construct: purchased Boehringer Ingelheim Actilyse
T2 sequence (P00750 36-562): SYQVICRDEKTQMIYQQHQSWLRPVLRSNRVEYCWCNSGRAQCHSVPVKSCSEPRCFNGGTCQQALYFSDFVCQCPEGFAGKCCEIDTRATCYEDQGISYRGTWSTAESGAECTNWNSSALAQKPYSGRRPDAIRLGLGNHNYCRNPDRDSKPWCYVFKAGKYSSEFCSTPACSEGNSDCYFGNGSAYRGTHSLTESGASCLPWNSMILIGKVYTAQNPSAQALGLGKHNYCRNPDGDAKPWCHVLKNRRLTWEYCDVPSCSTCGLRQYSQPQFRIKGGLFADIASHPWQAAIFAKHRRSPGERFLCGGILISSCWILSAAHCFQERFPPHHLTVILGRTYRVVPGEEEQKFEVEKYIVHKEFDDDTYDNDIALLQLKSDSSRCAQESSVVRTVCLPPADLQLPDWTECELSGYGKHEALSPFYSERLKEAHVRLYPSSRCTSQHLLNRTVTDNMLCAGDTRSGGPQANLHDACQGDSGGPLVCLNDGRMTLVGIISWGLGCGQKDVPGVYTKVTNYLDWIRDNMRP
The experiment is described as follows: tPA/plasminogen activation by pre-formed misfolded OVA in the presence of compounds. It counts as biochemical. The settings on record: 80-fold or 160-fold diluted compound and misfolded OVA stocks of 1 mg/ml. The method, then:
[…] Negative control was buffer without OVA. […] In addition, it was assessed whether the compounds interfere with absorbance readings at 405 nm, with converted chromogenic substrate. […] The yellow solution is divided over wells of an ELISA plate. […] Signals are compared and related to the control.

The target of the next experiment is tPA (Homo sapiens, UniProt P00750). The experiment is described as follows: tPA serine protease activity with OVA heated in the presence of compounds (substrate S-2765). It counts as biochemical. Further details: purchased Boehringer Ingelheim Actilyse. The settings on record: OVA heated with 1 mg/ml compound, 80-, 160- or 320-fold diluted, 100 nM tPA. The method, then:
For this purpose, the influence of the compounds on heat-denaturation of OVA was analyzed (see above: Thioflavin T fluorescence measurements). Heated OVA at 1 mg/ml in PBS in the presence or absence of 1 mg/ml of the twelve compounds listed in Table 7 in PBS/DMSO (final DMSO concentration 1%) was used 80-fold or 160-fold or 320-fold diluted (final heated OVA concentration and compound concentration was 12.5 or 6.3 or 3.1 μg/ml; final DMSO concentration was 0.013% and 0.006% and 0.003%).

For a further experiment, the target named is T3, ovalbumin (Gallus gallus, UniProt P01012).
T3 construct: purchased Sigma A5503
T3 sequence (P01012 1-386): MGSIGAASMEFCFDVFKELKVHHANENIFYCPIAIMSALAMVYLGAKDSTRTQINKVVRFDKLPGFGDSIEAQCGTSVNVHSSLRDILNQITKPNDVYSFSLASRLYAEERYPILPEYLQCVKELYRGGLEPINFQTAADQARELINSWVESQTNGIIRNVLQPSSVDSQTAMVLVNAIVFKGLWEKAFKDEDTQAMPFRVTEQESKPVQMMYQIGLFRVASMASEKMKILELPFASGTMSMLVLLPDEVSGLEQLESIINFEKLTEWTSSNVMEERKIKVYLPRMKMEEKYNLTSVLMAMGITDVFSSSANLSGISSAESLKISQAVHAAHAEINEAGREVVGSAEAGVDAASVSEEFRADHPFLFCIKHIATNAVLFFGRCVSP
The experiment is described as follows: Transmission electron microscopy of ovalbumin heated in the presence of small compounds. Further details: species or system chicken. The settings on record: 1 mg/ml ovalbumin heated with 1 mg/ml compound. The method, then:
For TEM analyses grids were prepared according to standard procedures. Ovalbumin samples at 1 mg/ml were applied to 100-mesh copper grids with carbon coated Formvar (Merck, Germany), and subsequently washed with PBS and H2O. Grids were applied to droplets of 2% (m/v) methylcellulose with 0.4% (m/v) uranylacetate pH 4. After a 2-minutes incubation grids were dried on a filter. Images were recorded at 80 kV, at suitable magnifications on a JEM-1200EX electron microscope (JEOL, Japan).

Experiment [3] deals with misfolded proteins (Hb-AGE, Aβ). The experiment is described as follows: Binding of misfolded proteins from solution to immobilized small compounds (overall). The settings on record: compounds coated on ELISA plates, Hb-AGE or Aβ in solution. The method, then: (§1) To test the ability of the twelve selected compounds (see Table 7) to bind to misfolded proteins, the compounds were immobilized at 10/100/1000 μg/ml in the wells of 96-wells Greiner Microlon high binding plates, Nunc amino Immobilizer plates and Nunc Maxisorp plates. Compounds were coated in 100 mM NaHCO3 pH 9.6, 50 μl/well, 1 h at room temperature with agitation. As a control, wells were coated with buffer only. After blocking of the plates, wells were overlayed with solutions of 0.1/1/10 μg/ml Hb-AGE or 10/100 μg/ml Aβ, in binding buffer (PBS/0.1% Tween20). After washing, binding of Hb-AGE was assessed by overlaying wells with 1 μg/ml hybridoma antibody 4B5, which binds to glycations(^2), followed by RAMPO. Binding of Aβ was visualized using 500× diluted anti-Aβ antibodies (mouse antibody beta-amyloid Clone 6F/3D #M0872, lot 00003503, DAKOCytomation; β-amyloid (H-43) SC-9129, 200 μg/ml rabbit polyclonal IgG, Santa Cruz Biotechnology) and RAMPO/SWARPO in a 1:1 ratio. Finally, wells were overlayed with OPD/H2O2 solution, and H2SO4, before absorbance readings at 490 nm.

Experiment [4] addresses T4, Hb-AGE (Homo sapiens, UniProt P68871+P69905).
T4 construct: purchased Sigma-Aldrich H7379
Nature of the experiment: Binding of Hb-AGE from solution to immobilized small compounds. The settings on record: coat 100 μg/ml. The method, then:
as §1, with “the compounds were immobilized at 10/100/1000 μg/ml in the wells of 96-wells” left out

The target of experiment [5] is T4, Hb-AGE. Nature of the experiment: ELISA binding of tPA to immobilized Hb-AGE after pre-incubation with compounds. The settings on record: Hb-AGE first overlayed with compound (concentration series), then tPA. The method, then: Compounds were now diluted 10× in PBS/0.1% Tween20 (500 μg/ml compound). […] With the selection, similar binding assays are performed with misfolded OVA and Aβ. Finally, concentration series of the selected compounds are used in the binding studies.

In experiment [6] the target is T2, tPA/plasminogen. The experiment is described as follows: tPA/plasminogen activation by OVA heated in the presence of compounds (substrate PNAPEP1751). The settings on record: 25 μg/ml OVA, 25 μg/ml compound, […] DMSO. In kind it is biochemical. The method, then: Heated OVA, either in PBS/1% DMSO (positive control), or in the same buffer in the presence of 1 mg/ml of the compounds, was used 40-fold diluted in the assay. Negative control was buffer without OVA. […] In addition, it was assessed whether the compounds interfere with absorbance readings at 405 nm, with converted chromogenic substrate. […] The yellow solution is divided over wells of an ELISA plate. […] Signals are compared and related to the control.

A further experiment deals with T5, heat-denatured ovalbumin (Gallus gallus, UniProt P01012).
T5 construct: purchased Sigma A5503
T5 sequence (P01012 1-386): T3 sequence (P01012 1-386)
Nature of the experiment: Thioflavin T fluorescence of ovalbumin and small compounds. Further details: species or system chicken. The settings on record: 1 mg/ml compound, 1 mg/ml OVA. The method, then: To establish the enhancement of Thioflavin T fluorescence by ovalbumin preparations, 90 μl of 25 μM ThT-solution in 50 mM Glycine buffer (pH 9.0) was added to 10 μl sample in duplicate wells of black 96-wells plates. Heat-denatured ovalbumin at 1 mg/ml in PBS with no addition, DMSO at a final concentration of 1% v/v, or 1 mg/ml of the compounds listed in Table 7, was used. Compound stocks are 100 mg/ml in DMSO. In addition, ovalbumin at 1 mg/ml with the same additions was first heat denatured and subsequently used in the fluorescence assay. Heat denaturation was according to the protocol given above. Fluorescence of duplicates was measured on a Thermo Fluoroskan Ascent 2.5, at 435 nm excitation and 485 nm emission wavelengths.

Another experiment addresses T6, Aβ (Homo sapiens, UniProt P05067, E693Q).
T6 construct: Lyophilized human amyloid-β(1-40) with E22Q mutation ‘Dutch type’; purchased Peptide facility, Dutch Cancer Institute, Amsterdam; host or cells: synthetic peptide
The experiment is described as follows: Binding of Aβ from solution to immobilized small compounds. The settings on record: coat 100 μg/ml. The method, then: as §1, with “the compounds were immobilized at 10/100/1000 μg/ml in the wells of 96-wells” left out

“Also recorded” adds a separate entry of the source.

T4 sequence (P69905 2-142 limits assumed): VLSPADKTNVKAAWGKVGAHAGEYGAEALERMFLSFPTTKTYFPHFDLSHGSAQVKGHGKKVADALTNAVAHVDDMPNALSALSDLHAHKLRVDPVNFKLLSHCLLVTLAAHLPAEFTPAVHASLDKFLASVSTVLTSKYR
T4 sequence (P68871 2-147 limits assumed): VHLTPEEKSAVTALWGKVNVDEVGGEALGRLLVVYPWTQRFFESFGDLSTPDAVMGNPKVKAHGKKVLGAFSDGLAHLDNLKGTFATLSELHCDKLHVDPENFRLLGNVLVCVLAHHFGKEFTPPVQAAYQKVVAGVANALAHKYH
tPA, sequence (P00750 36-562): as the sequence (P00750 36-562) above
T1 sequence (P69905 2-142 limits assumed): as the sequence (P69905 2-142 limits assumed) above
T1 sequence (P68871 2-147 limits assumed): as the sequence (P68871 2-147 limits assumed) above

As for Thioflavin S, the “influence on binding of IgIV to immobilized Hb-AGE” value in experiment [1] is reported as “enhance the binding of IgIV”.

As for Bucharaine [compound 8], at tPA/plasminogen [2], the “influence on tPA/plasminogen activation by pre-formed misfolded OVA” value is on record as “potent inhibitors of misfolded OVA-triggered plasmin generation; also recorded: fully abolish plasmin activity”. Further, the “influence on tPA protease activity of OVA heated in the presence of compound” value on tPA is reported as “induces further stimulation of tPA by OVA; also recorded: induce increased tPA activity when combined with ovalbumin before heat-denaturation”. In addition, on ovalbumin, the “appearance of ovalbumin heated in the presence of compound on TEM image” value is listed as “no large OVA aggregates are seen”.

For `Cc1c(C(=O)O)c(O)cc2c1C(=O)c1c(O)c([C@H]3O[C@H](CO)[C@@H](O)[C@H](O)[C@H]3O)c(O)c(O)c1C2=O` [compound 19], at tPA/plasminogen [2], the “influence on tPA/plasminogen activation by pre-formed misfolded OVA” value is listed as “Delayed tPA/plasminogen activation by misfolded OVA”. Moreover, the “capture of misfolded protein from solution by immobilized compound” value in experiment [3] is on record as “Capture of misfolded protein from solution”. Also, the “Signal (a.u.)” value on Hb-AGE [4] (Nunc Maxisorp, Hb-AGE 10 μg/ml) was determined as 0.16 a.u; on Hb-AGE [4] (Nunc amino Immobilizer, Hb-AGE 1 μg/ml), 0.42 a.u; at Aβ (Nunc Maxisorp, Aβ 100 μg/ml), 0.08 a.u; on Aβ (Nunc amino Immobilizer, Aβ 10 μg/ml), 0.03 a.u; on Aβ (Nunc amino Immobilizer, Aβ 100 μg/ml), 0.04 a.u. At Hb-AGE [5], the “influence on tPA binding to immobilized Hb-AGE” value is listed as “Stimulated tPA binding to immobilized misfolded protein (Hb-”. The “appearance of ovalbumin heated in the presence of compound on TEM image” value at ovalbumin is reported as “Background as in Control, but less aggregated. Also”. Further, the “influence on tPA/plasminogen activation by OVA pre-heated in the presence of compound” value at tPA/plasminogen [6] is “Inhibition of tPA/plasminogen activation by OVA pre-heated”. Further, the “influence on Thioflavin T fluorescence with misfolded OVA” value at heat-denatured ovalbumin is “Inhibition on Thioflavin T fluorescence with misfolded OVA”.
